Data from PubChem BioAssay AID2060607 (Molecular Pharmacology Branch, DTP, NCI, 2025).
pIC50: −log10 of the molar value. Several values for one entry are separate records, joined by “and”; a condition that tells them apart may be missing. Equal entries are not always repeated.

Tested on: 876862-298-R-J1-PDC complex spheroids, viability % test/control
Assay: Anticancer human tumor 876862-298-R-J1-PDC patient-derived endometrial carcinoma cell line growth inhibition [CLK]
Settings: for viability, T/C: stronger effect = lower value; for pIC50: curve of compound; for IC50: compound alone
Excerpt: A high-throughput screen of multi-cell type tumor spheroids was designed to identify active combinations of […] and targeted small molecules. Complex spheroids include a stromal component modeled by human endothelial cells (HUVEC) and fibroblasts modeled by human mesenchymal stem cells (MSCs). The concentration ranges selected for each drug and investigational agent were based upon clinically achievable concentrations if the clinical Cmax of the agent was known.
Compounds. The drugs and investigational agents: cirtuvivint (SM08502; NSC835563), CC-671 (NSC850746), vemurafenib (NSC761431), tapotoclax (NSC804041), sotorasib (NSC818433), adagrasib (NSC831453), MRTX-1133 (NSC836407), BAY2416964 (NSC825713), copanlisib (NSC816437), inavolisib (NSC800729), abemaciclib (NSC768073), osimertinib (NSC779217), entinostat (NSC756642), eltanexor (KPT-8602, NSC794443), venetoclax (NSC766270), ceralasertib (NSC777638), bortezomib (NSC756655), olaparib (NSC753686), talazoparib (NSC767125), alisertib (NSC759677), peposertib (NSC802822), gemcitabine (NSC613327), 5-fluorouracil (NSC19893), SN-38 (NSC673596), oxaliplatin (NSC266046), paclitaxel (NSC125973), and doxorubicin (NSC123127), were obtained from the National Cancer Institute (NCI) Developmental Therapeutics Program Chemical Repository. The FDA-approved anticancer drug set is available from the Developmental Therapeutics Program at https://dtp.cancer.gov/organization/dscb/obtaining/available plates.htm. […] The stock solutions were prepared in dimethyl sulfoxide (DMSO, Sigma-Aldrich, St. Louis, MO, cat. D2650), except for the platinum complexes which were prepared in saline (Quality Biological, Gaithersburg, MD, cat. 114-055-101), at 800-fold the tested concentration and stored at -70 degrees C prior to their use. All drugs and investigational agents were tested over a range starting from a high concentration at or near the clinical Cmax and decreasing in half-log increments. If the clinical Cmax for an agent had not been determined, the highest concentration tested was 10 microM.
Cell Culture. All cells were maintained in an incubator at 37 degrees C and 5% CO2 with 95% humidity. The PDC lines were cultured according to standard operating procedures established by the NCI PDMR. Briefly, all PDCs were thawed and cultured in Matrigel-coated flasks prepared with a working solution of 1X Ham's F-12 nutrient mix, without supplementation (Invitrogen, Waltham, MA, cat. 11765054), 100 U/mL penicillin-streptomycin (Invitrogen, cat. 15140122), and 2.5% Matrigel (Corning Inc., Corning, NY, cat. 354248) for the first three passages. The 947758-054-R-J2-PDC line was cultured in 6B/Colon 1A media, which includes advanced DMEM/F-12 (Thermo Fisher Scientific, cat. 12634028), 10 mM HEPES (Thermo Fisher Scientific, cat. 15630080), 1X GlutaMAX supplement (Thermo Fisher Scientific, cat. 35050061), 0.1 mg/mL primocin (InvivoGen, cat. ant-pm-2), 10% defined fetal bovine serum, heat inactivated (HyClone Laboratories Inc., cat. SH30070.03HI), 1.25 mM N-Acetyl-L-cysteine (Sigma-Aldrich, cat. A9165), 10 mM nicotinamide (Sigma-Aldrich, cat. N0636), 1X B-27 supplement (Thermo Fisher Scientific, cat. 17504044), 1X N-2 supplement (Thermo Fisher Scientific, cat. 17502048), and 10 microM Y-27632 dihydrochloride (Tocris Bioscience, cat. 1254). The 876862-298-R-J1-PDC was cultured in 6E media, which includes all 6B/Colon 1A media components plus 50% L-WRN conditioned media (ATCC, cat. CRL-3276), 50 ng/mL recombinant human EGF recombinant protein (hEGF; Thermo Fisher Scientific, cat. PHG0311), 10 ng/mL recombinant human fibroblast growth factor 10 (hGFG-10; PeproTech, cat. 100-26), 1 ng/mL recombinant human fibroblast growth factor 2 (hFGF-2; PeproTech, cat. 100-18B), and 1 µM prostaglandin E2 (PGE2; Tocris, cat. 2296). The 227483-062-R1-J1-PDC line was cultured in Panc media, containing all 6E components except hFGF-2, with the addition of 500 nM SB-431542 (Selleckchem, cat. S1067) and 10 nM gastrin (Tocris, cat. 3006). […]
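Further: spheroids exposed to drugs for 7 days before readout.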
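Wherever viability, T/C is given: 100% = DMSO vehicle control wells.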

Structure (SMILES) | viability, T/C (compound 0.0316 µM) | viability, T/C (compound 0.1 µM) | viability, T/C (compound 0.316 µM) | viability, T/C (compound 1 µM) | viability, T/C (compound 3.16 µM) | viability, T/C (compound 10 µM) | pIC50 | further results
C#Cc1c(F)ccc2cc(O)cc(-c3ncc4c(N5CC6CCC(C5)N6)nc(OCC56CCCN5CC(F)C6)nc4c3F)c12 (centres undefined) | 95.8% and 117% | 100% and 96.1% | 90.8% and 110% | 92.2% and 105% | 103% and 100% | 81.8% and 86.7% | < 5.00 | 
C=C(F)C(=O)N1CCN(c2nc(OCC3CCCN3C)nc3c2CCN(c2cccc4cccc(Cl)c24)C3)CC1CC#N (centres undefined) | 97.6% and 102% | 97.9% and 102% | 92.6% and 96.1% | 102% | 86.3% and 96.5% | 2.35% and 15.5% | 5.28 and 5.21 | 
C=CC(=O)N1CCN(c2nc(=O)n(-c3c(C)ccnc3C(C)C)c3nc(-c4c(O)cccc4F)c(F)cc23)C(C)C1 (centres undefined) | 95.8% | 97.3% and 99.5% | 102% and 108% | 106% and 103% | 110% and 114% | 94.6% and 83% | < 5.00 | 
C=CC(=O)Nc1cc(Nc2nccc(-c3cn(C)c4ccccc34)n2)c(OC)cc1N(C)CCN(C)C |  |  |  |  |  |  | 6.57 and 6.54 | viability, T/C (compound 0.000949 µM): 107% and 103%; viability, T/C (compound 0.003 µM): 98.7% and 109%; viability, T/C (compound 0.00949 µM): 100% and 103%; viability, T/C (compound 0.03 µM): 96.7% and 88.7%; viability, T/C (compound 0.0949 µM): 81% and 82.2%; viability, T/C (compound 0.3 µM): 46.5% and 48.2%
CC(C)CC(NC(=O)C(Cc1ccccc1)NC(=O)c1cnccn1)B(O)O (centres undefined) |  |  |  |  |  |  | 8.70 and 8.79 | viability, T/C (compound 0.000949 µM): 116% and 88.5%; viability, T/C (compound 0.003 µM): 13.2% and 7.38%; viability, T/C (compound 0.00949 µM): 0.57% and 0.51%; viability, T/C (compound 0.03 µM): 0.45% and 0.53%; viability, T/C (compound 0.0949 µM): 0.3% and 0.59%; viability, T/C (compound 0.3 µM): 0.2% and 0.9%
CC(CO)NC(=O)c1cc(-c2ccc(Cl)cc2)nn(-c2cnn(C)c2)c1=O (centres undefined) | 85% and 116% | 92.3% and 95.9% | 79.3% and 80.6% | 88.4% and 76.2% | 71.6% and 78.7% | 56% and 64.9% | < 5.00 | 
CC(Nc1ccc2c(c1)OCCn1cc(N3C(=O)OCC3C(F)F)nc1-2)C(N)=O (centres undefined) | 105% and 86.6% | 81.8% and 90.4% | 76.5% and 68.3% | 72.2% and 51.6% | 48.5% and 38.3% | 27.7% and 22.8% | 5.55 and 5.92 | 
CC1(C)CCC(CN2CCN(c3ccc(C(=O)NS(=O)(=O)c4ccc(NCC5CCOCC5)c([N+](=O)[O-])c4)c(Oc4cnc5[nH]ccc5c4)c3)CC2)=C(c2ccc(Cl)cc2)C1 | 102% and 88.4% | 92% and 101% | 105% and 99.1% | 102% and 106% | 111% and 121% | 18.4% and 14.2% | 5.19 and 5.20 | 
CC1COCCN1c1cc(C2(S(C)(=N)=O)CC2)nc(-c2ccnc3[nH]ccc23)n1 (centres undefined) | 110% and 102% | 99.5% and 104% | 89.4% and 94.8% | 77.1% and 79.5% | 55% and 44% | 27% and 18.8% | 5.41 and 5.58 | 
CCCS(=O)(=O)Nc1ccc(F)c(C(=O)c2c[nH]c3ncc(-c4ccc(Cl)cc4)cc23)c1F | 111% and 94.9% | 107% and 108% | 108% and 97.3% | 100% and 110% | 91.8% and 83.4% | 43.5% and 39.1% | 5.06 and 5.12 | 
CCN1CCN(Cc2ccc(Nc3ncc(F)c(-c4cc(F)c5nc(C)n(C(C)C)c5c4)n3)nc2)CC1 | 86.5% and 84.8% | 68.3% and 76.1% | 52.7% and 61.5% | 46.3% and 48.5% |  |  | 6.32 and 6.05 | viability, T/C (compound 0.00316 µM): 91.2% and 109%; viability, T/C (compound 0.01 µM): 86.9% and 101%
CCc1c2c(nc3ccc(O)cc13)-c1cc3c(c(=O)n1C2)COC(=O)[C@]3(O)CC | 6.83% and 6.05% | 5.12% and 5.99% | 3.64% and 4.64% | 2.58% and 4.7% |  |  | > 8.50 | viability, T/C (compound 0.00316 µM): 48% and 36.5%; viability, T/C (compound 0.01 µM): 9.1% and 7.37%
CN1CCN(c2cc(C(=O)Nc3cc4cc(-c5cnn(C)c5)ccc4cn3)ccn2)CC1 | 95.1% [middle of 12 runs] | 49.8% [middle of 12 runs] | 3.46% [middle of 12 runs] | 1.68% [middle of 12 runs] | 1.49% [middle of 12 runs] | 1.35% [middle of 12 runs] |  | IC50 (run of 09/18/2023): 99.4 nM [middle of 12 runs]
CNC(=O)c1ccc(Nc2nc(OC3CCCC3)c3c(-c4ccc5nc(C)oc5c4)c[nH]c3n2)c(OC)c1 | 86% [middle of 12 runs] | 49.5% [middle of 12 runs] | 37.8% [middle of 12 runs] | 28.6% [middle of 12 runs] | 24.6% [middle of 12 runs] | 23.1% [middle of 12 runs] |  | IC50 (run of 09/19/2023): 112 nM [middle of 11 runs]
COC1C=CCC(C)C(C)S(=O)(=O)NC(=O)c2ccc3c(c2)N(CC2CCC21)CC1(CCCc2cc(Cl)ccc21)CO3 (centres undefined) | 112% and 102% | 97.2% and 97.7% | 102% and 97.5% | 107% and 99.3% | 109% and 99.7% | 38.3% and 29.6% | 5.09 and 5.15 | 
COc1c(OCCCN2CCOCC2)ccc2c3n(c(=NC(=O)c4cnc(N)nc4)nc12)CCN3 | 70.9% and 57% | 37.8% and 26.3% | 17% and 14.9% | 15% and 16% |  |  | 7.20 and 7.38 | viability, T/C (compound 0.00316 µM): 105% and 81.8%; viability, T/C (compound 0.01 µM): 89.7% and 83.9%
Cn1ncnc1[C@H]1c2n[nH]c(=O)c3cc(F)cc(c23)N[C@@H]1c1ccc(F)cc1 | 107% and 114% | 107% and 101% |  |  |  |  | < 7.00 | viability, T/C (compound 0.000316 µM): 110% and 102%; viability, T/C (compound 0.001 µM): 91.2% and 96.9%; viability, T/C (compound 0.00316 µM): 106% and 96.8%; viability, T/C (compound 0.01 µM): 103% and 105%
NC(=O)C(=Cn1cnc(-c2cc(C(F)(F)F)cc(C(F)(F)F)c2)n1)c1cncnc1 |  |  |  |  |  |  | 7.33 and 7.28 | viability, T/C (compound 0.00949 µM): 78% and 78.2%; viability, T/C (compound 0.03 µM): 54.1% and 60.3%; viability, T/C (compound 0.0949 µM): 37.5% and 38.2%; viability, T/C (compound 0.3 µM): 33.6% and 27.7%; viability, T/C (compound 0.949 µM): 24.4% and 18.7%; viability, T/C (compound 3 µM): 13.4% and 12.4%
Nc1ccccc1NC(=O)c1ccc(CNC(=O)OCc2cccnc2)cc1 | 99.9% and 95.4% | 106% and 99.6% | 105% | 91.7% and 106% | 80.1% and 75.2% | 39.1% and 29.7% | 5.13 and 5.22 | 
Nc1ccn(C2OC(CO)C(O)C2(F)F)c(=O)n1 (centres undefined) | 12.8% and 8.55% | 7.47% and 6.97% | 7.3% and 6.5% | 6.05% and 6.36% | 6.22% and 8.41% | 7.04% and 6.47% | > 7.50 | 
O=C(c1cc(Cc2n[nH]c(=O)c3ccccc23)ccc1F)N1CCN(C(=O)C2CC2)CC1 | 105% and 91.5% | 107% and 99% | 109% and 99.4% | 109% and 104% | 108% and 106% | 90.4% and 89.1% | < 5.00 | 
O=c1[nH]cc(F)c(=O)[nH]1 | 99.1% and 101% | 93.2% and 107% | 100% and 99.6% | 104% and 101% | 70% and 56.4% | 54.1% and 46.7% | < 5.00 and 5.17 | 
